In ChEMBL document CHEMBL2069276, “Identification of a novel serum and glucocorticoid regulated kinase-1 (SGK1) ligand from virtual screening” (Bioorg Med Chem Lett, 2012):
Changes are numbered by the printed parent chain. Activity calls are given as the source filed them. The calls are words filed in the database; no cut-off is given here.

Columns and labels:
[1] = molecular target: T1, Serine/threonine-protein kinase Sgk1 (Homo sapiens) (UniProt O00141); test: Inhibition of constitutively active SGK1 expressed in human HEK293 cells assessed as inhibition of FOXO3a phosphorylation at Thr 32 at 100 uM after 40 hrs; format: cell-based
T1 sequence (whole entry): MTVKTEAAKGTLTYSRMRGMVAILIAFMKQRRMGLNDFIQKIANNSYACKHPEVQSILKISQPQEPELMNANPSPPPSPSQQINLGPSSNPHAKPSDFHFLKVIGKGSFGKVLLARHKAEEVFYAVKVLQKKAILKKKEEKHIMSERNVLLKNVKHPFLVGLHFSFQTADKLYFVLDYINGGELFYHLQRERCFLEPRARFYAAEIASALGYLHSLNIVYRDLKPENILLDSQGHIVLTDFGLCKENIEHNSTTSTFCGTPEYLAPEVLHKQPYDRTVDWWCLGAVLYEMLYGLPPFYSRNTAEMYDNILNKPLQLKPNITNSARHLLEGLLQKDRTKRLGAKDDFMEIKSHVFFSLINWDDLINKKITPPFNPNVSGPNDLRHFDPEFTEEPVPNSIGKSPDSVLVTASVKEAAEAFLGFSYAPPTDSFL

[2] = molecular target: T2, Serine/threonine-protein kinase Sgk1 (Homo sapiens, UniProt O00141); test: Inhibition of human recombinant SGK1
T2 sequence (O00141 whole entry): T1 sequence (whole entry)

[3] = test system: T3, Serine/threonine-protein kinase Sgk1 (Homo sapiens), O00141 [S422D]; test: Inhibition of SGK1 S422D mutant expressed in human HEK293 cells assessed as inhibition of FOXO3a phosphorylation at Thr 32 at 100 uM after 40 hrs; format: cell-based
T3 sequence (whole entry): T1 sequence (whole entry) with S422D

HEK293 [4] = test: Induction of vacuolization in human HEK293 cells up to 100 uM; format: cell-based
HEK293 [5] = test: Induction of vacuolization in human HEK293 cells at >1 uM; format: cell-based
[6] = molecular target: T1, Serine/threonine-protein kinase Sgk1 (Homo sapiens); test: Inhibition of constitutively active SGK1 expressed in human HEK293 cells assessed as inhibition of FOXO3a phosphorylation at Thr 32 after 40 hrs; format: cell-based
[7] = test system: T3, Serine/threonine-protein kinase Sgk1 (Homo sapiens), O00141 [S422D]; test: Inhibition of SGK1 S422D mutant expressed in human HEK293 cells assessed as inhibition of FOXO3a phosphorylation at Thr 32 after 40 hrs; format: cell-based

inhibition [1] | IC50 [2] [µM] | inhibition [3] | inhibition [6] | inhibition [7] | SMILES | Activity (HEK293 [4]) | Activity (HEK293 [5])
Active | 60 | Active | – | – | COc1ccc(NC(=O)Cc2nc(-c3ccc([N+](=O)[O-])cc3)cs2)cc1 | Non-toxic | –
– | – | – | Dose-dependent effect | Dose-dependent effect | O=C(O)c1ccc(-c2c[nH]c3ncc(-c4ccccc4)cc23)cc1C1CCCC1 [GSK-650394] | – | Toxic
